Data from US3966896A, “Radioimmunoassay for plasma renin activity” (Mallinckrodt, Inc., priority 1974, dated 1976).
Where “and” joins values, the source holds several entries; their conditions need not be identical. Equal values may be shown once.

Key:
[1] = test system: antibody for angiotensin I; assay: Radioimmunoassay standard reactions: competitive binding of labeled and unlabeled angiotensin I to antibody; set-up: species or system rabbit
Procedure: Antiserum (Rabbit) 1.4 μl
A series of standard prereaction mixtures was prepared by transferring 0.1 ml aliquots of standard unlabeled angiotensin I solutions from the standard vials to a series of reaction vials. Standard prereaction mixtures were prepared using the standard solutions containing 6, 3, 2, 1, 0.8, 0.6, and 0.3 ng/ml unlabeled angiotensin I, respectively. Two blank prereaction mixtures were prepared by adding 0.1 ml pH 9.0 buffer to a reaction vial.
Reaction mixtures were prepared and radioimmunoassay commenced by adding antiserum solution (0.1 ml) to each of the base unknown, generated unknown, standard, and blank prereaction mixtures. Antiserum was withheld from one reaction vial used as a control. The reaction mixtures contained in each vial were then mixed gently on a vortex and incubated for 1 hour at 37°C. After incubation was completed, each reaction vial was taken out of the water bath, the cap removed and an anion exchange resin strip immersed in the contents of the vial. The vial was then recapped and placed on a rotator for 30 minutes at room temperature (21°-23°C.). At the end of 30 minutes, the resin strip was removed from each vial and placed in an empty vial. Radioactivity of both the strip containing the unbound ("free") angiotensin I and the supernatant liquid containing the antibody bound ("bound") angiotensin I was counted, and the percentage bound angiotensin I was determined from the following relationship: [formula]
From the data of Tables I and II, a graph was prepared in which the percent bound angiotensin I was plotted against nanograms of unlabeled standard angiotensin I contained in the standard reaction solutions for the two sets of standard reactions. FIG. 1 is that graph. […]
Standard radioimmunoassay reactions were carried out using duplicate blanks and standard solutions respectively containing 0.03, 0.06, 0.08, 0.1, 0.2, 0.3 and 0.6 ng. unlabeled angiotensin I per ml. A control was also run in which no antiserum was added to the prereaction mixture. The procedure of Example 2 was followed, except that the temperature and period of incubation of the radioimmunoassay reaction were varied. The following combinations of time and temperature were utilized for these standard radioimmunoassay reactions: […]

angiotensinogen = assay: Plasma renin activity, as angiotensin I generation rate; type: biochemical, human
Procedure: Blood was drawn from patient three into a tube coated with EDTA and the plasma separated by centrifugation and cooled to 4°C. To one ml. of the cold plasma were added portions of 8-hydroxyquinoline inhibiting solution (10 μl) and dimercaprol inhibiting solution (10 μl). The resulting unknown plasma sample was transferred to a generation vial containing generation buffer solution and mixed.
The generation vial was placed in a water bath controlled at 37°C. and generation was carried out for 3 hours. At the end of this time, the generated unknown sample was removed from the water bath, cooled in an ice bath, and three 100 μl aliquots thereof transferred to three reaction vials to provide three generated unknown radioimmunoassay prereaction mixtures containing generated plasma, human serum albumin, sodium azide preservative, HCl, and ^125 I labeled angiotensin I.
The renin activity of patient three's plasma was indicated by the angiotensin I generation rate determined from the following relationship: [formula] The factor of 30 is used because the plasma is initially diluted three-fold, and only 0.1 ml of the dilute plasma is used in the radioimmunoassay, while the angiotensin I generation rate is based on 1 ml.
Another sample of patient three's plasma was assayed in the manner described in Example 2, except that 2,2-dimethyl glutaric acid was used in place of potassium acid phthalate as the buffering component of the generation mixture. Results of radioactivity counting on the base and generated radioimmunoassay reaction mixtures obtained in the assay of this example are set forth in Table IV.
Following the procedure described in Example 2, a renin activity radioimmunoassay was conducted on the plasma of patient two. The results of radioactive counting and the percent bound antigen for the duplicate standard radioimmunoassay reaction mixture are set forth in Tables V and VI.
Another sample of patient two's plasma was assayed in the manner described in Example 4, except that 2,2-dimethylglutaric acid was used in place of potassium acid phthalate as a buffering component of the generation mixture. Results of radioactive counting on the base and generated radioimmunoassay mixtures obtained in the assay of this example are set forth in Table VIII.
A renin activity radioimmunoassay was conducted on the plasma of patient one. The procedure described in Example 2 was followed except that only one set of reactions was carried out in establishing the standard curve. Results of radioactive counting and the percent bound antigen for the standard radioimmunoassay reaction mixtures are set forth in Table IX.
Another sample of patient one's plasma was assayed in the manner described in Example 6, except that 2,2-dimethylglutaric acid was used in place of potassium acid phthalate as the buffering component of the generation mixture. Results of radioactivity counting on the base and generated radioimmunoassay reaction mixtures, together with the angiotensin I content of the ungenerated and generated samples, are set forth in Table XI.

Molecule: Angiotensin I: decapeptide formed from angiotensinogen by renin; unlabeled standard in the radioimmunoassay (DRVYIHPFHL; Angiotensin-1; UniProt P01019 25-34, looked up)
- % Bound labeled angiotensin I ([1]; 0.03 ng unlabeled angiotensin I standard, 12°C, 1 hour): 38.3%
- % Bound labeled angiotensin I ([1]; 0.03 ng unlabeled angiotensin I standard, 12°C, 5 hours): 60.8%
- % Bound labeled angiotensin I ([1]; 0.03 ng unlabeled angiotensin I standard, 20°C, 1 hour): 46.52%
- % Bound labeled angiotensin I ([1]; 0.03 ng unlabeled angiotensin I standard, 20°C, 5 hours): 64.22%
- % Bound labeled angiotensin I ([1]; 0.03 ng unlabeled angiotensin I standard, 37°C, 1 hour): 56.33% and 55.20% and 54.06% and 54.27% and 56.75% and 54.34%
- % Bound labeled angiotensin I ([1]; 0.06 ng unlabeled angiotensin I standard, 12°C, 1 hour): 36.6%
- % Bound labeled angiotensin I ([1]; 0.06 ng unlabeled angiotensin I standard, 12°C, 5 hours): 52.9%
- % Bound labeled angiotensin I ([1]; 0.06 ng unlabeled angiotensin I standard, 20°C, 1 hour): 43.88%
- % Bound labeled angiotensin I ([1]; 0.06 ng unlabeled angiotensin I standard, 20°C, 5 hours): 62.08%
- % Bound labeled angiotensin I ([1]; 0.06 ng unlabeled angiotensin I standard, 37°C, 1 hour): 50.77% and 53.62% and 49.30% and 49.16% and 52.76% and 49.86%
- % Bound labeled angiotensin I ([1]; 0.08 ng unlabeled angiotensin I standard, 12°C, 1 hour): 34.7%
- % Bound labeled angiotensin I ([1]; 0.08 ng unlabeled angiotensin I standard, 12°C, 5 hours): 50.4%
- % Bound labeled angiotensin I ([1]; 0.08 ng unlabeled angiotensin I standard, 20°C, 1 hour): 37.90%
- % Bound labeled angiotensin I ([1]; 0.08 ng unlabeled angiotensin I standard, 20°C, 5 hours): 53.73%
- % Bound labeled angiotensin I ([1]; 0.08 ng unlabeled angiotensin I standard, 37°C, 1 hour): 49.01% and 48.63% and 48.16% and 48.27% and 48.93% and 45.64%
- % Bound labeled angiotensin I ([1]; 0.1 ng unlabeled angiotensin I standard, 12°C, 1 hour): 34.3%
- % Bound labeled angiotensin I ([1]; 0.1 ng unlabeled angiotensin I standard, 12°C, 5 hours): 47.5%
- % Bound labeled angiotensin I ([1]; 0.1 ng unlabeled angiotensin I standard, 20°C, 1 hour): 40.23%
- % Bound labeled angiotensin I ([1]; 0.1 ng unlabeled angiotensin I standard, 20°C, 5 hours): 50.27%
- % Bound labeled angiotensin I ([1]; 0.1 ng unlabeled angiotensin I standard, 37°C, 1 hour): 45.93% and 45.19% and 45.21% and 43.12% and 46.72% and 42.96%
- % Bound labeled angiotensin I ([1]; 0.2 ng unlabeled angiotensin I standard, 12°C, 1 hour): 27.2%
- % Bound labeled angiotensin I ([1]; 0.2 ng unlabeled angiotensin I standard, 12°C, 5 hours): 34.1%
- % Bound labeled angiotensin I ([1]; 0.2 ng unlabeled angiotensin I standard, 20°C, 1 hour): 31.21%
- % Bound labeled angiotensin I ([1]; 0.2 ng unlabeled angiotensin I standard, 20°C, 5 hours): 32.23%
- % Bound labeled angiotensin I ([1]; 0.2 ng unlabeled angiotensin I standard, 37°C, 1 hour): 35.75% and 35.05% and 29.50% and 28.39% and 34.97% and 30.79%
- % Bound labeled angiotensin I ([1]; 0.3 ng unlabeled angiotensin I standard, 12°C, 1 hour): 25.8%
- % Bound labeled angiotensin I ([1]; 0.3 ng unlabeled angiotensin I standard, 12°C, 5 hours): 24.4%
- % Bound labeled angiotensin I ([1]; 0.3 ng unlabeled angiotensin I standard, 20°C, 1 hour): 23.71%
- % Bound labeled angiotensin I ([1]; 0.3 ng unlabeled angiotensin I standard, 20°C, 5 hours): 25.25%
- % Bound labeled angiotensin I ([1]; 0.3 ng unlabeled angiotensin I standard, 37°C, 1 hour): 29.47% and 31.32% and 28.06% and 26.30% and 27.55% and 27.52%
- % Bound labeled angiotensin I ([1]; 0.6 ng unlabeled angiotensin I standard, 12°C, 1 hour): 15.9%
- % Bound labeled angiotensin I ([1]; 0.6 ng unlabeled angiotensin I standard, 12°C, 5 hours): 16.6%
- % Bound labeled angiotensin I ([1]; 0.6 ng unlabeled angiotensin I standard, 20°C, 1 hour): 15.54%
- % Bound labeled angiotensin I ([1]; 0.6 ng unlabeled angiotensin I standard, 20°C, 5 hours): 15.0%
- % Bound labeled angiotensin I ([1]; 0.6 ng unlabeled angiotensin I standard, 37°C, 1 hour): 17.21% and 16.50% and 17.98% and 17.40% and 17.61% and 16.72%

B1: Renin: proteolytic enzyme secreted by juxtaglomerular cells in the kidney (protein, UniProt P00797 67-406, looked up)
Renin: LTLGNTTSSVILTNYMDTQYYGEIGIGTPPQTFKVVFDTGSSNVWVPSSKCSRLYTACVYHKLFDASDSSSYKHNGTELTLRYSTGTVSGFLSQDIITVGGITVTQMFGEVTEMPALPFMLAEFDGVVGMGFIEQAIGRVTPIFDNIISQGVLKEDVFSFYYNRDSENSQSLGGQIVLGGSDPQHYEGNFHYINLIKTGVWQIQMKGVSVGSSTLLCEDGCLALVDTGASYISGSTSSIEKLMEALGAKKRLFDYVVKCNEGPTLPDISFHLGGKEYTLTSADYVFQESYSSKKLCTLAIHAMDIPPPTGPTWALGATFIRKFYTEFDRRNNRIGFALAR
- Renin activity (angiotensinogen; patient one plasma, glutarate generation buffer): 1.31 ng/mL/h
- Renin activity (angiotensinogen; patient one plasma, phthalate generation buffer): 0.849 ng/mL/h
- Renin activity (angiotensinogen; patient three plasma, glutarate generation buffer): 0.7 ng angiotensin I/ml/hr
- Renin activity (angiotensinogen; patient three plasma, phthalate generation buffer): 0.42 ng/mL/h
- Renin activity (angiotensinogen; patient two plasma, glutarate generation buffer): 2.91 ng/mL/h
- Renin activity (angiotensinogen; patient two plasma, phthalate generation buffer): 1.41 ng Angiotensin I/ml/hr
